Source: patent US11421264B2, “Thiol-containing cleave reagents and oxidative wash” (IsoPlexis Corporation, priority 2015, dated 2022)
Counter-ions that a name gives are not always drawn.

How the values were obtained:
[1] = Cleavage of nucleotide with dithio 3′ protective group and dithio based linker by cleavage agents (RP-HPLC, FIG. 78); conditions: RP-HPLC after 10 minutes of incubation with cleave reagent
Excerpt: In addition to these a variety of suitable cleaving agents can be used such as Bis(2-mercaptoethyl)sulfone (BMS) and N,N′-dimethyl-N,N′-bis(mercaptoacetyl)hydrazine (DMH) (Singh et al., Bioorg. Chem., 22, 109-115 (1994). Reactions can be further catalyzed by inclusion of selenols (Singh et al. Anal Biochem. 1995 Nov. 20; 232(1):86-91 [18]). Borohydrides, such as sodium borohydrides can also be used for this purpose (Stahl et al., Anal. Chem., 1957, 29 (1), pp 154-155 [19]) as well as ascorbic acid (Nardai et al., J. Biol. Chem. 276, 8825-8828 (2001)). In addition, enzymatic methods for cleavage of disulfide bonds ae also well known such as disulfide and thioreductase and can be used with compounds of the present invention (Holmgren et. al., Methods in Enzymology, Volume 252, 1995, Pages 199-208 [21]).

[2] = Cleavage of 3′-(MeSSCH2) capped nucleotide with attached disulfide linker by thiol based cleave reagents (LC-MS); conditions: for Compound C [%]: fully cleaved product; for Compound C [%] / Compound B [%] / Compound A [%]: Compound A 0.2 mM, cleave agent 20 mM, buffer 200 mM TE pH 8.5, 10 min @ 65 degree C.; for Compound B [%]: partly cleaved product; for Compound A [%]: starting nucleotide left, relative peak area at 280
Protocol: The structures of these cleave reagents are shown. See, FIG. 83. The cleavage products were then characterized by liquid chromatography/mass spectrometry ((LC/MS). See, FIG. 84. Compounds A, B and C are shown in FIG. 82A-82C.
This example presents a general method for cleavage studies as presented herein.
A stock solution of 100 mM cleave reagent (see Table-1) was prepared in 1.0 M TE buffer (pH 8.5, Sigma #T9285) in a 15.0 mL centrifuge tube. Then an aliquot of 20 μL (2,000 nmol) of it was diluted with 76.9 uL distilled water in a 1.0 mL centrifuge tube and added with 3.07 μL of 6.5 mM MeSSdUTP-ARA-NH2 (11, 20 nmol) to obtain—100 litL of total volume (Final concentration: 20 mM cleaving agent, 0.2 mM nucleotide, 200 mM TE buffer). The mixture tube was heated at 65 degree C. on a pre-heated thermocycler by shaking gently. The mixture was immediately analyzed by LC-MS after 10 minutes. The % conversion was determined by relative peak areas of the respective peaks extracted at 280 mu wavelength.

Molecule | identified composition of reaction mixture: cleavage of linker and 3′-protective group [1] | Compound C [%] [2] [%] | Compound B [%] [2] [%] | Compound A [%] [2] [%] | cleavage of both the capping group and the linker ([2]; in less than ten (10) minutes at 65° C. in TRIS buffer (pH 8.5))
O[C@H](CS)[C@H](O)CS (racemic) [DTT, dithiothreitol] | full cleavage of both linker and the 3′-protective groups | 100 | 0 | 0 | 
NCCS [Cysteamine] | full cleavage of both linker and the 3′-protective groups | 100 | 0 | 0 | 
O=S(=O)(O)CC(S)CS (centres unmarked) [Dimercaptopropanesulfonate, 2,3-Dimercapto-1-propanesulfonic acid sodium salt] |  | 100 | 0 | 0 | 
OC(=S)CCC(O)=S [Dithiosuccinic acid] |  |  |  |  | complete cleavage was not observed
N[C@@H](CS)C(=O)O [L-Cysteine] | full cleavage of both linker and the 3′-protective groups | 100 | 0 | 0 | 
Dithiosuccinic acid | selective cleavage of 3′-O-protective group | 50 | 50 | 0 | 
